Data on 6 compounds can be found in the NIST ThermoML archive (doi:10.1016/j.fluid.2007.01.022).

Numbers after ± are expanded uncertainties.

For the data set the following is noted: 298.15 K; 101.33 kPa; Liquid.
Regarding `Cc1ccccc1N` [2-methylaniline], the mass density (as a rule, the mass of a sample divided by its volume) is 994.343 ± 0.24 kg/m3.
As for `CCCCCCCCCC` [decane], the figure is 726.412 ± 1.6 kg/m3; as for `CCCCCCCCCCCC` [dodecane], 741.54 ± 1.6 kg/m3.
As for `CCCCCCC` [heptane], the figure is 679.627 ± 0.85 kg/m3; as for `CCCCCCCCC` [nonane], 714.064 ± 1.3 kg/m3; as for `CCCCCCCC` [octane], 698.636 ± 1.3 kg/m3.
